From patent US7732504B2, “Functionalized photoinitiators” (Ciba Specialty Chemicals Corporation, priority 2004, dated 2010)

How the values were obtained:
[1] = Solubility of the initiator in the blue offset printing ink formulation; assay type: physicochemical; parameters: key: good (+); acceptable (±); bad (−)
Method: (§1) A photocurable blue offset printing ink is prepared in accordance with the following formulation: […]
18.3 g of Ebecryl® 1608 (UCB, Belgium)
18.3 g of Ebecryl® 657 (polyester acrylate from UCB, Belgium)
20.0 g of Ebecryl® 220 (urethane acrylate from UCB, Belgium)
20.9 g of Ebecryl® 150 (bisphenol A derivative diacrylate from UCB, Belgium)
22.5 g Irgalit blue GLO (Cu-phthalocyanine pigment from Ciba Specialty Chemicals)
(§2) The above components are grounded down to a stock paste. Portions of the stock paste are mixed with the photoinitiators indicated in the table (% by weight on the stock paste). The solubility of the initiator in the formulation is rated as good (+), acceptable (±) or bad (−) and the results shown in Table 1.

[2] = Solubility of the initiator in the blue flexo printing ink formulation; assay type: physicochemical; parameters: key: good (+); acceptable (±); bad (−); details: photoinitiator conc 6.0 % by weight on the stock paste
Method: (§3) A photocurable blue flexo printing ink is prepared in accordance with the following formulation: […]
26.9 g of IRR 440 (flexo basic resin)
19.0 g of OTA 480 (acrylated trifunctional resin, UCB, Belgium)
18.0 g of Ebecryl® 645 (modified diacrylate of Bisphenol A epoxy resin diluted with 25% of TPGDA, from UCB, Belgium)
13.0 g of HDDA (1,6-hexanediol diacrylate)
10.0 g of Ebecryl® 220 (urethane acrylate from UCB, Belgium)
1.3 g of Ebecryl® 168 (methacrylated acidic compound from UCB, Belgium)
0.7 g of DC 57 (Leveling agent)
11.1 g Irgalit blue GLO (Cu-phthalocyanine pigment from Ciba Specialty Chemicals)
as §2, with “2.” for “1.”

[3] = Curing of a blue flexo printing ink on a white polyethylene foil (maximum rate of passage, 120 W/cm mercury lamp); details: conc 6.0 %, blue flexo ink on corona treated white polyethylene foil
Method: Curing of a Blue Flexo Printing Ink on a White Polyethylene Foil
as §3
as §2, with “2.” for “1.”
The blue printing ink thus obtained is applied with […] 1.5 μm thickness on a corona treated white polyethylene foil using a Prüfbau laboratory printing equipment. The samples are exposed in an irradiation apparatus with a 120 W/cm mercury lamp (IST). The rate of passage of the sample through the irradiation apparatus is thereby increased continuously until adequate curing no longer occurs. The adhesion of the cured film to the foil is measure by the Tesa tape test.

[4] = Curing of a blue offset printing ink on white paper (maximum rate of passage, 80 W/cm mercury lamp); details: for curing rate (m/min) for surface cure / curing rate (m/min) for through cure: blue offset ink 1.5 g/m^2 on white paper, 80 W/cm mercury lamp
Method: Curing of a Blue Offset Printing Ink on White Paper
as §1, §2
The blue printing ink thus obtained is applied with 1.5 g/m^2 (˜1.5 μm thickness) on white paper using a Prüfbau laboratory printing equipment. The samples are exposed in an irradiation apparatus with a 80 W/cm mercury lamp (IST). The rate of passage of the sample through the irradiation apparatus is thereby increased continuously until adequate curing no longer occurs. The odor of the cured film is rated on a scale from 1 (odorless) to 3 (strong odor).

[5] = photoinitiator conc 3.0 % by weight on the stock paste
[6] = photoinitiator conc 4.0 % by weight on the stock paste

SMILES | melting point | solubility [1, 5] | solubility [1, 6] | solubility [2] | curing rate (m/min) for surface cure [3] | curing rate (m/min) for through cure [3] | efficiency as a photoinitiator compared with the reference compounds ([4]; blue offset printing ink, versus Irgacure 369 and Irgacure 907) | curing rate (m/min) for surface cure ([4]; conc 3.0 %) | curing rate (m/min) for through cure ([4]; conc 3.0 %) | curing rate (m/min) for surface cure ([4]; conc 4.0 %) | curing rate (m/min) for through cure ([4]; conc 4.0 %)
CCCC(CC)(C(=O)c1ccc(NCCO)cc1)N(C)C (stereo not shown) | 74 to 77 °C |  |  |  |  |  |  |  |  |  | 
CCC(Cc1ccccc1)(C(=O)c1ccc(NCCO)cc1)N(C)C (stereo not shown) [Example 1, 2-benzyl-1-[4-(2-hydroxyethylamino)phenyl]-2-dimethylamino-1-butanone] | 109 to 111 °C | + | + | + | 200 m/min | 40 m/min | more efficient as a photoinitiator than the reference compounds | 100 m/min | 120 m/min | 140 m/min | 170 m/min
CC(C)(C(=O)c1ccc(NCCO)cc1)N1CCOCC1 [Example 6, 1-[4-(2-hydroxyethyamino)phenyl]-2-methyl-2-(morpholin-4-yl)-1-propanone] | 77 to 78 °C |  |  |  |  |  |  |  |  |  | 
CCC(Cc1ccccc1)(C(=O)c1ccc(N2CCOCC2)cc1)N(C)C (stereo not shown) [Irgacure 369, 2-benzyl-2-(dimethylamino)-1-[4-(4-morpholinyl)phenyl]-1-butanone] |  | − | − | + | 170 m/min | 90 m/min |  | 70 m/min | 110 m/min | 90 m/min | 130 m/min
CSc1ccc(C(=O)C(C)(C)N2CCOCC2)cc1 [Irgacure 907] |  |  | + |  |  |  |  |  |  | 80 m/min | 90 m/min
